Results on 30 molecules are retold here after patent publication US20070129334A1, “Orally Active Purine-Based Inhibitors of Heat Shock Protein 90” (CONFORMA THERAPEUTICS CORPORATION, priority 2001, published 2007).

pIC50: −log10 of the molar value. Read-outs that look alike come from different tables or passages of the source.

The test system of data set [1] is HER-2 receptor (Hsp90 client) in MCF-7 cells. Description: HER-2 degradation assay (MCF-7 cells, 16 h, phycoerythrin-labeled antibody and flow cytometry). In kind it is cell-based, human. The conditions noted are these: for IC50: MCF7, read-out: HER-2 IC50(nM). (A flow cytometer gives signals particle by particle.)
Data set [2] is described as follows: Solubility in simulated gastric fluid, simulated intestinal fluid and serum. The class given is physicochemical. The conditions noted are these: for Gastric (PH 2.0): solubility in simulated gastric fluid; for Intestinal (PH 6.5): solubility in simulated intestinal fluid.
[3] abbreviates: Homo sapiens, MCF7, MCF-7 cells, 16 h, average of at least three observations, read-out: HER-2 IC50.
The mark [4] stands for this setting: Homo sapiens, MCF7, benzothiozole moiety SAR, MCF-7, read-out: HER-2 IC50.
[5] abbreviates: Homo sapiens, MCF7, read-out: HER-2.

A word on the IC50: it is the point on the concentration scale where inhibition reaches its midpoint.

Take `CCCCn1c(Cc2cc(OC)ccc2I)nc2c(N)ncnc21` [Compound 20, 9-Butyl-8-(2-iodo-5-methoxy-benzyl)-9H-purin-6-ylamine]: the pIC50 in data set [1] (setting [3]) was 5.30.

As to `CCCCn1c(Cc2cc(OC)ccc2Br)nc2c(N)ncnc21` [Compound 23, 8-(2-Bromo-5-methoxy-benzyl)-9-butyl-9H-purin-6-ylamine], the pIC50 in data set [1] (setting [3]) is 5.10.

As to `CCCCn1c(Sc2cc(OC)ccc2OC)nc2c(N)ncnc21` [Compound 43, 9-Butyl-8-(2,5-dimethoxy-phenylsulfanyl)-9H-purin-6-ylamine], in data set [1] (setting [3]), the pIC50 was 5.46.

With `C#CCCCn1c(Sc2cc(OC)ccc2I)nc2c(N)nc(F)nc21` [Compound 68, 2-Fluoro-8-(2-iodo-5-methoxy-phenylsulfanyl)-9-pent-4-ynyl-9H-purin-6-ylamine], the pIC50 in data set [1] (setting [3]) was 6.44.

On to `CCCCn1c(Sc2nc3cccc(Br)c3s2)nc2c(N)ncnc21` [Compound 171, 8-(7-Bromo-benzothiazol-2-ylsulfanyl)-9-butyl-9H-purine-6-ylamine], for which the IC50 in data set [1] (Homo sapiens) came out at 330 nM.

As to `CCCCn1c(Sc2nc3cccc(C)c3s2)nc2c(N)ncnc21` [Compound 172, 9-Butyl-8-(7-methyl-benzothiazol-2-ylsulfanyl)-9H-purine-6-ylamine], the half-maximal inhibitory concentration (IC50) in data set [1] (Homo sapiens) was determined as 300 nM.

`CCCCn1c(Sc2nc3cccc(OC)c3s2)nc2c(N)ncnc21` [Compound 173, 9-Butyl-8-(7-methoxy-benzothiazol-2-ylsulfanyl)-9H-purine-6-ylamine]: in data set [2] (solubility in serum, PH 7.4), the “Serum (PH 7.4)” value is 18 µg/mL. In data set [2], the “Gastric (PH 2.0)” value is 35 µg/mL and the “Intestinal (PH 6.5)” value was 2 µg/mL. Besides, the IC50 in data set [1] (Homo sapiens) came out at 190 nM.

For the molecule `CCCCn1c(Sc2nc3cccc(OCC)c3s2)nc2c(N)ncnc21` [Compound 174, 9-Butyl-8-(7-ethoxy-benzothiazol-2-ylsulfanyl)-9H-purine-6-ylamine], the pIC50 in data set [1] (setting [4]) is 4.00.

In the case of `CCCCn1c(Sc2nc3cccc(F)c3s2)nc2c(N)ncnc21` [Compound 175, 9-Butyl-8-(7-fluoro-benzothiazol-2-ylsulfanyl)-9H-purine-6-ylamine], the IC50 in data set [1] (Homo sapiens) was determined as 200 nM.

Take `CCCCn1c(Sc2nc3cncc(Cl)c3s2)nc2c(N)ncnc21` [Compound 177, 9-Butyl-8-(7-chloro-thiazole[4,5-c]pyridin-2-ylsulfanyl)-9H-purin-6-ylamine]: in data set [1] (pyridothiazole moiety SAR, HER-2 degradation activity, read-out: HER-2), the pIC50 was 6.55.

For `CCCCn1c(Sc2nc3ccccc3s2)nc2c(N)ncnc21` [Compound 178, 8-(Benzothiazol-2-ylsulfanyl)-9-butyl-9H-purine-6-ylamine], in data set [1] (setting [4]), the pIC50 is 5.30.

Take `CCCCn1c(Sc2nc3ccc(Cl)cc3s2)nc2c(N)ncnc21` [Compound 179, 9-Butyl-8-(6-chloro-benzothiazol-2-ylsulfanyl)-9H-purine-6-ylamine]: the pIC50 in data set [1] (setting [4]) is 5.15.

With `CCCCn1c(Sc2nc3cc(Cl)ccc3s2)nc2c(N)ncnc21` [Compound 180, 9-Butyl-8-(5-chloro-benzothiazol-2-ylsulfanyl)-9H-purine-6-ylamine], the pIC50 in data set [1] (setting [4]) is 4.70.

Turning to `CCCCn1c(Sc2nc3c(Cl)cccc3s2)nc2c(N)ncnc21` [Compound 181, 9-Butyl-8-(4-chloro-benzothiazol-2-ylsulfanyl)-9H-purine-6-ylamine], the pIC50 in data set [1] (setting [4]) is 4.82.

`CCCCn1c(Sc2nc3ccc(Cl)c(Cl)c3s2)nc2c(N)ncnc21` [Compound 185, 9-Butyl-8-(6,7-dichloro-benzothiazol-2-ylsulfanyl)-9H-purine-6-ylamine]: in data set [1] (setting [4]), the pIC50 was 4.60.

For the molecule `CC(=O)OCCn1c(Sc2nc3cncc(Br)c3s2)nc2c(N)ncnc21` [Compound 204, Acetic acid 2-[6-amino-8-(7-bromo-thiazole[4,5-c]pyridin-2-ylsulfanyl)-purin-9-yl]-ethyl ester], the “Gastric (PH 2.0)” value in data set [2] is 98.5 µg/mL. For the same molecule, the pIC50 in data set [1] (read-out: HER-2) is 7.52.

As to `CC(=O)OCCCn1c(Sc2nc3cncc(Cl)c3s2)nc2c(N)ncnc21` [Compound 205, Acetic acid 3-[6-amino-8-(7-chloro-thiazolo[4,5-c]pyridin-2-ylsulfanyl)-purin-9-yl]-propyl ester], the pIC50 in data set [1] (setting [5]) is 6.77.

`CCCCn1c(Sc2nc3cncc(Br)c3s2)nc2c(N)ncnc21` [Compound 207]: in data set [1] (setting [5]), the pIC50 was 6.40.

As to `CCn1c(Sc2nc3cccc(Cl)c3s2)nc2c(N)ncnc21` [Compound 229, 9-ethyl-8-(7-chloro-benzothiazol-2-ylsulfanyl)-9H-purine-6-ylamine], the pIC50 in data set [1] (setting [5]) is 6.70.

For the molecule `CCCn1c(Sc2nc3cccc(Cl)c3s2)nc2c(N)ncnc21` [Compound 231, 9-Propyl-8-(7-chloro-benzothiazol-2-ylsulfanyl)-9H-purine-6-ylamine], the pIC50 in data set [1] (setting [5]) was 6.60.

Consider `CCCCn1c(Sc2nc3cccc(Cl)c3s2)nc2c(N)ncnc21` [Compound 232, 9-Butyl-8-(7-chloro-benzothiazol-2-ylsulfanyl)-9H-purine-6-ylamine], for which the pIC50 in data set [1] (setting [5]) was 6.74. In addition, the half-maximal inhibitory concentration (IC50) in data set [1] (Homo sapiens) amounted to 180 nM.

Regarding `CCCCCn1c(Sc2nc3cccc(Cl)c3s2)nc2c(N)ncnc21` [Compound 233, 9-Pentyl-8-(7-chloro-benzothiazol-2-ylsulfanyl)-9H-purine-6-ylamine], the pIC50 in data set [1] (setting [5]) is 6.15.

Regarding `CC(=O)OCCn1c(Sc2nc3cccc(Cl)c3s2)nc2c(N)ncnc21` [Compound 241, Acetic acid 2-[6-amino-8-(7-chloro-benzothiazol-2-ylsulfanyl)-purin-9-yl]-ethyl ester], the pIC50 in data set [1] (setting [5]) is 6.82.

`CC(=O)OCCCCn1c(Sc2nc3cccc(Cl)c3s2)nc2c(N)ncnc21` [Compound 243, Acetic acid 4-[6-amino-8-(7-chloro-benzothiazol-2-ylsulfanyl)-purin-9-yl]-butyl ester]: in data set [2], the “Gastric (PH 2.0)” value was 46 µg/mL and the “Intestinal (PH 6.5)” value was 3 µg/mL. The pIC50 in data set [1] (setting [5]) was 6.89.

In the case of `Nc1ncnc2c1nc(Sc1nc3cccc(Cl)c3s1)n2CCO` [Compound 244, 2-[6-Amino-8-(7-chloro-benzothiazol-2-ylsulfanyl)-purin-9-yl]-ethanol], the pIC50 in data set [1] (setting [5]) was 6.52.

As to `Nc1ncnc2c1nc(Sc1nc3cccc(Cl)c3s1)n2CCCO` [Compound 245], the pIC50 in data set [1] (setting [5]) is 6.82.

For `Nc1ncnc2c1nc(Sc1nc3cccc(Cl)c3s1)n2CCCCO` [Compound 246, 4-[6-Amino-8-(7-chloro-benzothiazol-2-ylsulfanyl)-purin-9-yl]-butan-1-ol], in data set [1] (setting [5]), the pIC50 is 6.82.

Regarding `CC(C)(C)NCCn1c(Sc2nc3cccc(Cl)c3s2)nc2c(N)ncnc21` [Compound 265, 9-(2-tert-Butylamino-ethyl)-8-(7-chloro-benzothiazole-2-ylsulfanyl)-9H-purin-6-yl amine], in data set [1] (setting [5]), the pIC50 is 6.85.

On to `CC(C)NCCCn1c(Sc2nc3cccc(Cl)c3s2)nc2c(N)ncnc21` [Compound 266, 8-(7-Chloro-benzothiazol-2-ylsulfanyl)-9-(3-isopropylamino-propyl)-9H-purin-6-yl amine], for which the pIC50 in data set [1] (setting [5]) was 6.77.

In the case of `Nc1ncnc2c1nc(Sc1nc3cccc(Cl)c3s1)n2CCN1CCOCC1` [Compound 270, 8-(7-Chloro-benzothiazol-2-ylsulfanyl)-9-(2-morpholin-4-yl-ethyl)-9H-purin-6-ylamine], in data set [1] (setting [5]), the pIC50 was 6.60.
